From BindingDB's records for doi:10.1016/j.bmcl.2009.11.060 (Glaxosmithkline, 2010)

Assay: Inhibition of GSK3-beta phosphorylation in human BT474 cells

Row | IC50 | SMILES
1 | 64 nM | Cc1n[nH]c2cnc(-c3cc(OC[C@@H](N)Cc4c[nH]c5ccccc45)cnc3-c3ccoc3)cc12 [(S)-1-(6-(furan-3-yl)-5-(3-methyl-1H-pyrazolo[3,4-c]pyridin-5-yl)pyridin-3-yloxy)-3-(1H-indol-3-yl)propan-2-amine]
2 | 3860 nM | Cc1n[nH]c2ccc(-c3cc(OC[C@@H](N)Cc4c[nH]c5ccccc45)cnc3-c3ccoc3)nc12 [(S)-1-(6-(furan-3-yl)-5-(3-methyl-1H-pyrazolo[4,3-b]pyridin-5-yl)pyridin-3-yloxy)-3-(1H-indol-3-yl)propan-2-amine]
3 | 160 nM | Cc1n[nH]c2ncc(-c3cc(OC[C@@H](N)Cc4c[nH]c5ccccc45)cnc3-c3ccoc3)nc12 [(S)-1-(6-(furan-3-yl)-5-(3-methyl-1H-pyrazolo[4,3-b]pyrazin-5-yl)pyridin-3-yloxy)-3-(1H-indol-3-yl)propan-2-amine]
4 | 260 nM | Cc1n[nH]c2ncc(-c3cc(OC[C@@H](N)Cc4c[nH]c5ccccc45)cnc3-c3ccoc3)cc12 [(S)-1-(6-(furan-3-yl)-5-(3-methyl-1H-pyrazolo[3,4-b]pyridin-5-yl)pyridin-3-yloxy)-3-(1H-indol-3-yl)propan-2-amine]
